Source: patent US10689306B2, “Fertilizer composition and methods of making and using same” (SABIC GLOBAL TECHNOLOGIES B.V., priority 2015, dated 2020)

How the values were obtained:
[1] = Thermal stability of NBTPT at urea melt temperature by HPLC; type: physicochemical; details: 133-135° C., over time
Description: The percentage of intact NBTPT in the sample is shown in each chromatogram.
Certain fertilizer additives can be unstable and decompose at elevated temperatures. In a conventional manufacturing process, a fertilizer additive is directly exposed to the temperature of a urea melt, which is typically 133-135° C., during the granulation process. […] Accordingly, at least a portion of NBTPT is lost by using conventional methods.
The fertilizers and methods disclosed herein protect the fertilizer additive from being directly exposed to the temperature of a urea melt during the manufacturing process. The fertilizer core particle of the fertilizer comprises a binder, which protects the fertilizer additive from being directly exposed to the urea melt and the temperature of the urea melt. As such, the fertilizer additive is protected from the elevated temperature and is less likely to decompose. […] Thus, the fertilizers and methods disclosed herein prevent loss of a fertilizer additive, such as, for example, without limitation, an inhibitor, for example NBTPT, during the manufacturing process.
The thermal stability of neat NBTPT and NBTPT contained within a core, as disclosed herein, can be determined by HPLC. […] (133-135° C. is the typical temperature range of a urea melt) and can continuously be analyzed by HPLC every 5 min, until data for 30 min was collected. […]

[2] = cited from earlier work
[3] = Nitrogen loss after 17 days of exposure to Upland Crowley Soil (IFDC)
Description: The nitrogen volatilization was measured in different soils for several samples and compared to products on the market, such as Agrotain®, ESN®, and SuperU®. The samples were tested in Greenville soil, Crowley soil, and Brownfield Soil.
Crowley soil consists of very deep, somewhat poorly drained, very slowly permeable soils that formed in clayey fluviomarine deposits of the Pleistocene age. The soil exist in nearly level to very gently sloping soils and occur on flat coastal plains terraces. The slope is dominantly less than 1 percent but ranges to up to 3 percent. The mean annual precipitation is about 1549 mm (61 in), and the mean annual air temperature is about 20 degrees c. (68 degrees F.), where the soil is found. The soil is fine, smectitic, and thermic Typic Albaqualfs.

[4] = hot climatic region; cited from earlier work

Which “thermal stability of neat NBTPT” value ([1]; neat, FIG. 13) does the source give for `CCCCNP(N)(N)=S` [NBTPT, N-(n-butyl) thiophosphoric triamide] here?
Its value is “decomposes”.

What about the “thermal stability of NBTPT within a fertilizer core particle” value ([1]; within a core, FIG. 14) of the same compound?
The value was “stable over time and does not decompose”.

What about the “stability under acidic pH” value [2] of the same compound?
Its value is “unstable”.

For `NC(N)=O` [Urea, urea], which “Cumulative Nitrogen Loss (mg) by 17 Days” value ([3]; 17 days of exposure to Upland Crowley Soil) is on record?
The value was 299.08 mg.

What about the “% Urea” value ([3]; nitrogen loss relative to urea (100), 17 days, Upland Crowley Soil) of the same compound?
Its value is 100%.

What about the “% Reduction in Nitrogen Loss” value ([3]; versus urea, 17 days, Upland Crowley Soil) of the same compound?
The value was 0%.

Which “thermal stability in the soil” value [4] does the source give for `N#CN=C(N)N` [DCD, dicyandiamide] here?
The value was “thermal instability”.
